Laboratory results as given in ChEMBL document CHEMBL5620365, “Synthesis and evaluation of piperazinotriazoles. Discovery of a potent and orally bioavailable neurokinin-3 receptor inhibitor” (Eur J Med Chem, 2023).

Key:
in vivo [1] = conditions: Sprague-Dawley, rat, po, 5 mg/kg
in vivo [2] = conditions: Sprague-Dawley, rat, po, 5 mg/kg; remark: listed apart in the source
in vivo [3] = conditions: Sprague-Dawley, rat, brain, po, 5 mg/kg
in vivo [4] = conditions: Sprague-Dawley, rat, liver, po, 5 mg/kg
in vitro [5] = conditions: rat, liver microsomes
in vivo [6] = conditions: Sprague-Dawley, rat, iv, 1 mg/kg
in vivo [7] = conditions: Sprague-Dawley, rat, iv, 1 mg/kg; remark: listed apart in the source
in vivo [8] = conditions: Sprague-Dawley, rat, iv, 1 mg/kg; remark: listed apart in the source
in vivo [9] = conditions: Sprague-Dawley, rat, po, 5 mg/kg; remark: listed apart in the source
in vivo [10] = conditions: Sprague-Dawley, rat, iv, 1 mg/kg; remark: listed apart in the source
in vitro [11] = conditions: human, liver microsomes
in vivo [12] = conditions: Sprague-Dawley, rat, iv, 1 mg/kg; remark: listed apart in the source
in vivo [13] = conditions: Sprague-Dawley, rat, po, 5 mg/kg; remark: listed apart in the source
in vivo [14] = conditions: Sprague-Dawley, rat, brain, po, 5 mg/kg; remark: listed apart in the source

SMILES: Cc1nsc(-c2nnc3n2CCN(C(=O)c2ccc(F)cc2)[C@@H]3C)n1 [FEZOLINETANT]
- Tmax at 24 h (in vivo [1]): 1.83 h
- half-life at 24 h (in vivo [2]): 3.72 h
- concentration at 1 h (in vivo [3]): 1020 ng/g
- concentration at 1 h (in vivo [4]): 12100 ng/g
- CLint scaled at 0.25 h (in vitro [5]): < 6.8 mL/min/kg
- half-life at 24 h (in vivo [6]): 2.94 h
- clearance at 24 h (in vivo [7]): 2.93 mL/min/kg
- Vd at 24 h (in vivo [8]): 0.751 L/kg
- AUC(0-t) at 24 h (in vivo [9]): 31600 ng·h/mL
- AUC(0-t) at 24 h (in vivo [10]): 5590 ng·h/mL
- CLint scaled at 0.25 h (in vitro [11]): < 13.5 mL/min/kg
- Cmax at 24 h (in vivo [12]): 1770 ng/mL
- Cmax at 24 h (in vivo [13]): 3630 ng/mL
- concentration at 10 h (in vivo [14]): 297 ng/g
